The results in this text go back to patent US20060205599A1, “Herbicide combinations comprising specific sulfonamides” (Bayer CropScience GmbH, priority 2003, published 2006).

Series [1] has as its system Triticum aestivum. In kind it is in vivo. The note with it: field trial, natural outdoor conditions; visual score about 4 weeks after application vs untreated control, mean of 2-4 plots; application rate g of active substance/hectare: A 5, B 30, C 250, A + B 5 + 30, A + B + C 5 + 30 + 250. As to the method: The seeds or rhizome pieces of the harmful plants and the useful plants were laid out or were present in the soil, and they were grown under natural outdoor conditions.
During scoring, damage and development of all above-ground parts of plants was assessed. […] In each case, the mean score of 2-4 plots was calculated.

The subject of series [2] is Veronica hederifolia. Briefly: Herbicidal action (field trials), visual scoring of harmful plant. The class given is in vivo. The note with it: field trial, natural outdoor conditions; visual score about 4 weeks after application vs untreated control (100% = all plants died), mean of 2-4 plots; application rate g of active substance/hectare: A 5, B 30, C 250, A + B 5 + 30, A + B + C 5 + 30 + 250. As to the method: The seeds or rhizome pieces of the harmful plants and the useful plants were laid out or were present in the soil, and they were grown under natural outdoor conditions. Treatment with the active compounds or active compound combinations was carried out […] before and/or after the emergence of the plants, generally at the 2- to 4-leaf stage, in various dosages using a water application rate of 100 to 400 l/ha (converted).
After the application (about 4 weeks after the application), the effectiveness of the active compounds or active compound combinations was scored visually by comparing the treated plots to untreated control plants. During scoring, damage and development of all above-ground parts of plants was assessed. Scoring was carried out using a percentage scale (100% effect=all plants had died; 50% effect=50% of the plants and the green parts of the plants have died; 0% effect=no effect observed=like control plant). In each case, the mean score of 2-4 plots was calculated.
The results are shown in the table below; the effect of the individual application of active compounds (A+B) and C being stated in brackets.

As for `Cc1cc(Cl)ccc1O[C@H](C)C(=O)O` [mecoprop-P, (R)-2-(4-chloro-o-tolyloxy)propionic acid], the “Triticum aestivum % damage” value in series [1] worked out at 0%. The “Veronica hederifolia % effect” value in series [2] is recorded as 35%.

As to `COC(=O)c1ccc(CNS(C)(=O)=O)cc1S(=O)(=O)NC(=O)Nc1nc(OC)cc(OC)n1` [mesosulfuron-methyl, methyl 2-[3-(4,6-dimethoxypyrimidin-2-yl)ureidosulfonyl]-4-methanesulfonaminomethyl-benzoate], in series [1], the “Triticum aestivum % damage” value came to 2%. Further, in series [2], the “Veronica hederifolia % effect” value worked out at 7%.

Consider `CCCOc1nn(C(=O)[N-]S(=O)(=O)c2ccccc2C(=O)OC)c(=O)n1C.[Na+]` [propoxycarbazone-sodium], for which the “Triticum aestivum % damage” value in series [1] is recorded as 3%. In series [2], the “Veronica hederifolia % effect” value is 30%.
